PubChem BioAssay (NCI)
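Test compounds were applied to cells in 96-well plates for 48 hours at 5 doses. TGI: total growth inhibition.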

Legend:
Test in all cases: inhibition of tumour cell growth, NCI panel, 48 h
[1] = test system: IGROV1 ovarian
[2] = test system: NCI-H522 lung
[3] = test system: MALME-3M melanoma
[4] = test system: RXF 393 renal
[5] = test system: M14 melanoma
[6] = test system: SF-295 CNS
[7] = test system: OVCAR-5 ovarian
[8] = test system: UACC-62 melanoma
[9] = test system: HS 578T breast
[10] = test system: LOX IMVI melanoma
[11] = test system: UO-31 renal
[12] = test system: HOP-62 NSCLC
[13] = test system: OVCAR-8 ovarian
[14] = test system: SK-MEL-2 melanoma
[15] = test system: MOLT-4 leukemia
[16] = test system: HL-60(TB) leukemia
[17] = test system: MDA-MB-435
[18] = test system: RPMI-8226 leukemia

SMILES | TGI [1] | TGI [2] | TGI [3] | TGI [4] | TGI [5] | TGI [6] | TGI [7] | TGI [8] | TGI [9] | TGI [10] | TGI [11] | TGI [12] | TGI [13] | TGI [14] | TGI [15] | TGI [16] | TGI [17] | TGI [18]
O=C1CC(C(=O)N2CCCCC2)n2c(=O)n(-c3ccccc3)c(=O)n2C1 (stereo unspecified) | > 100 µM | > 100 µM | > 100 µM | > 100 µM | > 100 µM | > 100 µM | > 100 µM | > 100 µM | > 100 µM | > 100 µM | > 100 µM | > 100 µM | > 100 µM | – | – | – | – | –
COc1cccc2nc3cc(C)c(C)cc3nc12 | > 100 µM | > 100 µM | > 100 µM | > 100 µM | > 100 µM | > 100 µM | > 100 µM | > 100 µM | – | > 100 µM | > 100 µM | > 100 µM | > 100 µM | > 100 µM | > 100 µM | > 100 µM | – | –
O=C1C(=Nc2ccccc2)Oc2cc(O)ccc21 | > 100 µM | > 100 µM | > 100 µM | > 100 µM | > 100 µM | > 100 µM | > 100 µM | > 100 µM | – | > 100 µM | > 100 µM | > 100 µM | > 100 µM | > 100 µM | > 100 µM | – | > 100 µM | –
c1ccc(C2OCCO2)c(OCCOc2cc(OCCOc3ccccc3C3OCCO3)c(OCCOc3ccccc3C3OCCO3)cc2OCCOc2ccccc2C2OCCO2)c1 | 28.6 µM | – | > 100 µM | 18.2 µM | > 100 µM | > 100 µM | > 100 µM | 37.6 µM | – | > 100 µM | 53.2 µM | 28.6 µM | > 100 µM | 47.9 µM | > 100 µM | > 100 µM | – | > 100 µM
CCOc1ncn(-c2ccc(NC(=S)NC34CC5CC(CC(C5)C3)C4)cc2)n1 | > 100 µM | > 100 µM | – | – | > 100 µM | > 100 µM | > 100 µM | > 100 µM | – | > 100 µM | > 100 µM | > 100 µM | 64.3 µM | – | > 100 µM | > 100 µM | > 100 µM | > 100 µM
CC(C)C1COC(c2cccc(C3=N[C@@H](C(C)C)CO3)n2)=N1 (stereo partly specified) | > 100 µM | > 100 µM | > 100 µM | > 100 µM | > 100 µM | > 100 µM | > 100 µM | – | – | > 100 µM | > 100 µM | > 100 µM | – | > 100 µM | > 100 µM | > 100 µM | – | > 100 µM
C=CCNC(=O)NCCCC(NC(C)=O)C(=O)NCc1ccccc1 (stereo unspecified) | > 100 µM | > 100 µM | > 100 µM | > 100 µM | > 100 µM | > 100 µM | > 100 µM | > 100 µM | – | > 100 µM | > 100 µM | > 100 µM | > 100 µM | > 100 µM | > 100 µM | > 100 µM | – | > 100 µM
COc1ccc(-c2cc(=O)c3cc4c(cc3[nH]2)OCO4)cc1 | > 100 µM | – | > 100 µM | > 100 µM | > 100 µM | > 100 µM | – | > 100 µM | – | > 100 µM | > 100 µM | > 100 µM | > 100 µM | > 100 µM | > 100 µM | > 100 µM | – | > 100 µM
CCC(=O)N(O)C(C)(C)C | > 100 µM | > 100 µM | > 100 µM | > 100 µM | > 100 µM | > 100 µM | > 100 µM | > 100 µM | – | > 100 µM | > 100 µM | > 100 µM | > 100 µM | – | > 100 µM | > 100 µM | – | > 100 µM
CC(C)C12C=CC(C)(CC1)n1c(=O)c3cc4ccccc4cc3c(=O)n12 (stereo unspecified) | > 100 µM | 83.7 µM | > 100 µM | > 100 µM | > 100 µM | > 100 µM | > 100 µM | – | – | > 100 µM | 96.6 µM | > 100 µM | > 100 µM | > 100 µM | > 100 µM | > 100 µM | – | > 100 µM
C=C=C(Sc1ccccc1)C(C)(C)OC(C)=O | 33.3 µM | 29.6 µM | 35.3 µM | 28.4 µM | 32.4 µM | 33.6 µM | 45.2 µM | 29.2 µM | – | 30.9 µM | 28.6 µM | – | 46.9 µM | 35 µM | > 100 µM | 81 µM | – | > 100 µM
CS/C(C)=N/OC(=O)NCCCCNc1ccc(N=[N+]=[N-])cc1 | > 100 µM | 23.7 µM | > 100 µM | > 100 µM | > 100 µM | > 100 µM | > 100 µM | 89.4 µM | – | > 100 µM | 82.4 µM | > 100 µM | > 100 µM | – | > 100 µM | – | – | > 100 µM
CC(C)/C(Cl)=N\OC(=O)Nc1ccc(F)cc1F | 30.9 µM | – | 3.58 µM | 12.6 µM | 13.3 µM | 28.3 µM | 33.5 µM | 38.7 µM | 52.7 µM | 3.32 µM | 17.8 µM | 31.8 µM | 31.6 µM | 28.2 µM | 3.99 µM | 0.626 µM | – | 75.2 µM
